Results published in patent publication US5030631A, “Tricylclic arylsulfonamides” (Schering Corporation, priority 1989, dated 1991).

Key:
[1] = biological target: T1, myosin light chain kinase (MLCK) (Gallus gallus, UniProt P11799); test: Calcium-Calmodulin Independent Myosin Light Chain Kinase (MLCK) Assay; type: biochemical, chicken; settings: for IC50: calmodulin-independent MLCK (trypsin digested, chicken gizzard), peptide KKRPQRATSNVFS-NH2 50 μM, 100 uM ATP, pH 7.2; for inhibition at 100 µM: 100 μM compound, calmodulin-independent MLCK, printed in the IC50 (μM) column, read-out: percent inhibition at a dosage of 100 μM
T1 construct: Calmodulin-independent myosin light chain kinase(CIM) of greater than 95 percent homogeneity is prepared by trypsin digestion of calmodulin-dependent MLCK; from tissue; host or cells: chicken gizzard (purified from tissue, then digested with TPCK-treated trypsin)
T1 sequence (P11799 1217-1713 limits assumed): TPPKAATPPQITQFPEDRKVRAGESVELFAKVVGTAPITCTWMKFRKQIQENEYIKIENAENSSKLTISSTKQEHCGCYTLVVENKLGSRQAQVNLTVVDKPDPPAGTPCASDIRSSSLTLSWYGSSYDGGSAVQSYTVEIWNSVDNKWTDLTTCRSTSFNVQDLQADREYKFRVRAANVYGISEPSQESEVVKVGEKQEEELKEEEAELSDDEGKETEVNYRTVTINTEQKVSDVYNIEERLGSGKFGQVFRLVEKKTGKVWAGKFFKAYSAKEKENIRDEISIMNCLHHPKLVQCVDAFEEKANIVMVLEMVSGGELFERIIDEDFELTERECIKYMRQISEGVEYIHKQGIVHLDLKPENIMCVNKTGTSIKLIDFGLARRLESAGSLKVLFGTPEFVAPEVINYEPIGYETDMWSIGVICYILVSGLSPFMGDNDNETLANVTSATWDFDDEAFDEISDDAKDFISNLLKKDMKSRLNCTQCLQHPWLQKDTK
Method: A. Enzyme Preparation. Calmodulin-independent myosin light chain kinase(CIM) of greater than 95 percent homogeneity is prepared by trypsin digestion of calmodulin-dependent MLCK which is prepared from chicken gizzard by the method of Ngai, P. J., Carruthers, C. A. and Walsh, M. P. (1984), Biochem. J. 218, pages 863-870, through the step employing diethylaminoethyl(DEAE)-Sephacel®, trademark of Pharmacia Fine Chemicals, Inc., New Market, N.J. 08854. The kinase solution containing 8.5 mg protein is adjusted to 0.5 mg/ml in 20 mM Tris/HCl, pH 7.5, 2 mM EGTA. An aliquot of 1 mg/ml of N-tosyl-L-phenylalanine-chloromethyl ketone (TPCK) treated trypsin is added to a final trypsin:MLCK ratio of 1:7.5 (mg/mg protein). Typically, the reaction is incubated for 6 minutes at 25° C.
MLCK is assayed using the synthetic peptide substrate KKRPQRATSNVFS-NH2, a thirteen amino acid fragment with a sequence corresponding to residues 11-23 of gizzard light chain except for a carboxy-terminal serine-NH2 as described in Kemp, G. E., Pearson, R. B. and House, C. (1983) Proc. Nat. Acad. Sci. U.S.A. 80, pages 7471-7475. The standard assay is performed in a total volume of 100 microliters (μl) containing 20 mM Tris-HCl, pH 7.2, 10 mM MgCl2, 100 uM [γ-^32 P] ATP with a specific activity of 300-1000 counts per minute (cpm) per picomole (pmol), 50 μM KKRPQRATSNVFS-NH2, 0.02 μg enzyme. Calmodulin was added at the concentrations indicated in the text and tables, and assays contained 1 mM EGTA or 1 mM EGTA plus approximately 200 μM excess free calcium when calcium-dependent activity was measured. Calcium-independent activity is negligible in the calcium dependent gizzard enzyme. Assays are initiated by addition of adenosine triphosphate (ATP) and stopped by addition of 200 μM HCl. Phosphate incorporated into the basic substrate is measured by spotting an aliquot on phosphocellulose filter paper, washing and counting the papers. The results are given in IC50 values. An IC50 indicates the dosage of compound in micromoles (μM) which inhibits MLCK by 50 percent. […] Results given in percentages (%) indicates the percent inhibition at a dosage of 100 μM.

[2] = system: conscious spontaneously hypertensive rats (SHR); test: Antihypertensive Activity in Rats (conscious spontaneously hypertensive rats, SHR); type: in vivo, rat; settings: for Change in blood pressure (mean change in mean blood pressure): male SHR, placebo -5
From the text: The ability of the compounds of the present invention to lower blood pressure can be assessed in conscious spontaneously hypertensive rats (SHR). SHR (males) are purchased from Taconic Farms, Germantown, N.Y. and are approximately 16-17 weeks old when used to test the pharmacological effects. Rats, under ether anesthesia, receive a polyethylene tubing (PE50 fused to PE10) inserted via the caudal artery into the abdominal aorta to just below the renal arteries. This catheter is connected to a Spectromed pressure transducer and the direct arterial blood pressure is continuously recorded on an oscillographic recorder. Heart rate is determined via manual count of the pressure waves at a fast paper trace. […] If drugs are administered orally, compounds are suspended in 0.4% aqueous methylcellulose and delivered via oral gavage with an oral feeding needle. Rats are fasted overnight prior to intravenous or oral tests. All incisions are closed and the rats are placed into plexiglass restrainers where they quickly regain consciousness. At least 90 minutes are allowed for the rats to fully regain consciousness and achieve stable blood pressures and heart rates.
Intravenously administered drugs are usually given as a rapid bolus. […] In some cases drugs are given by constant intravenous infusion. The 0.4% aqueous methylcellulose is used as a placebo treatment for compounds given orally. Values are presented as the mean changes in mean blood pressure (MBP) in millimeters of mercury (mm Hg). Drug induced changes are compared with the changes in an appropriate placebo group. The compound is administered intravenously at a dosage of 1.0 to 5.0 milligrams per kilogram (mpk) body weight. The following results are representative for 1-((7-bromo-9H-fluoren-2-yl)sulfonyl)hexahydro-1H-1,4-diazepine from examples 4 and 27 (Compound A): […]

| IC50 [1] [µM] | Compound | also measured |
| --- | --- | --- |
| 32 | O=S(=O)(c1ccc2ncc3ccccc3c2c1)N1CCCNCC1 [Example 22] | – |
| 100 | O=S(=O)(c1cccc2nc3ccccc3cc12)N1CCCNCC1 [Example 21] | – |
| – | CC1(C)c2cc(Br)ccc2-c2ccc(S(=O)(=O)N3CCCNCC3)cc21 [Example 29] | inhibition at 100 µM [1]: 40% |
| 5 | O=S(=O)(c1c2ccccc2cc2ccccc12)N1CCCNCC1 [Example 25] | – |
| 35 | O=S(=O)(c1cccc2c1cnc1ccccc12)N1CCCNCC1 [Example 24] | – |
| 65 | O=S(=O)(c1ccc2c(cnc3ccccc32)c1)N1CCCNCC1 [Example 23] | – |
| 17 | O=S(=O)(c1cccc2cc3ccccc3cc12)N1CCCNCC1 [Example 16] | – |
| – | N=C(N)N1CCCN(S(=O)(=O)c2ccc3c(c2)Cc2cc(Br)ccc2-3)CC1 [Example 28] | inhibition at 100 µM [1]: 55% |
| 76 | O=S(=O)(c1ccc2c(c1)Cc1cc(Br)ccc1-2)N1CCCNCC1 [Compound A, 1-((7-bromo-9H-fluoren-2-yl)sulfonyl)hexahydro-1H-1,4-diazepine] | Change in blood pressure (mean change in mean blood pressure) ([2]; intravenous, 1.0 mpk): -13 mm Hg; reduction in blood pressure upon intravenous administration ([2]; intravenous, 1.0 to 5.0 mpk, SHR): dose-dependent reduction in blood pressure; Change in blood pressure (mean change in mean blood pressure) ([2]; intravenous, 2.5 mpk): -25 mm Hg; magnitude of the effect at the highest dose compared with the placebo ([2]; intravenous, 5.0 mpk, SHR, compared with placebo): marked reduction; Change in blood pressure (mean change in mean blood pressure) ([2]; intravenous, 5.0 mpk): -30 mm Hg; activity upon oral administration ([2]; oral, 50 mpk, SHR): does not show activity |
| 50 | O=S(=O)(c1ccc2cc3ccccc3cc2c1)N1CCCNCC1 [Example 17] | – |

| Compound | IC50 [1] [µM] | also measured |
| --- | --- | --- |
| O=S(=O)(c1cc2ccccc2c2ccccc12)N1CCCNCC1 [Example 18] | 4.8 | – |
| O=S(=O)(c1ccc2c(Br)cc3ccccc3c2c1)N1CCCNCC1 [Example 20] | 10 | – |
| O=S(=O)(c1cc2ccccc2c2ccccc12)N1CCCNCC1 [Example 26] | 3.5 | – |
| O=S(=O)(c1ccc2c(ccc3ccccc32)c1)N1CCCNCC1 [Example 19] | 11 | – |
